According to patent publication US20250042916A1 (ACONCAGUA BIO, INC., priority 2023, published 2025):

What follows are compounds tested against human calcitonin receptor (CTR) and RAMP3 (AMY3) in COS-7 cells (Homo sapiens, UniProt O60896+P30988) (assay: Amylin Receptor cAMP Assay I). Conditions: values marked *: Amylin Receptor cAMP Assay I; COS-7/AMY3 cells; read-out: Amylin Receptor cAMP Stimulation Activity: EC50.
Type: cell-based
How it was run: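 COS-7 cells stably co-expressing human CTR and RAMP3 (AMY3) were stimulated with serially diluted compounds (4-fold) in DPBS with 0.5 mM IBMX and 0.1% BSA for 30 min at 37 °C, 1000 cells/well. cAMP accumulation was measured by HTRF (cAMP-d2/anti-cAMP cryptate, 1 h RT) read at 665/615 nm.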

human calcitonin receptor (CTR) and RAMP3 (AMY3) in COS-7 cells, sequence (O60896 24-148, one chain of several): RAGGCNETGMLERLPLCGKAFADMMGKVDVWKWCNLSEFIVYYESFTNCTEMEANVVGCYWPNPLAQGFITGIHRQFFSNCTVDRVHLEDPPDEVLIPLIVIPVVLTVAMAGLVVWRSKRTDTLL

Row | SMILES | EC50 [µM]
1 | Cc1nnc(-c2c(CCc3ccc(F)cc3)nc(CC(C)C)c(C(N)=O)c2-c2ccc3c(ccn3CCc3ccc(F)c(F)c3)c2)o1 [Compound 144, 4-(1-(3,4-difluorophenethyl)-1H-indol-5-yl)-6-(4-fluorophenethyl)-2-isobutyl-5-(5-methyl-1,3,4-oxadiazol-2-yl)nicotinamide] | 0.0514
2 | Cc1nnc(-c2c(CCc3ccc(F)cc3)nc(CC(C)C)c(C(N)=O)c2-c2cc3cccc(NCc4ccc(F)c(F)c4)c3s2)o1 [Compound 136, 4-(7-((3,4-difluorobenzyl)amino)benzo[b]thiophen-2-yl)-6-(4-fluorophenethyl)-2-isobutyl-5-(5-methyl-1,3,4-oxadiazol-2-yl)nicotinamide] | 0.0067
3 | Cc1nnc(-c2c(CCc3ccc(F)cc3)nc(CC(C)C)c(C(N)=O)c2-c2cc3ccnc(N[C@@H]4CCc5ncccc54)c3s2)o1 [Compound 161] | 0.013
4 | Cc1nnc(-c2c(Cc3ccc(F)cc3)nc(CC(C)C)c(C(N)=O)c2-c2ccc(C(=O)NCc3ccc(F)c(F)c3)s2)o1 [Compound 110, 4-(5-((3,4-difluorobenzyl)carbamoyl)thiophen-2-yl)-6-(4-fluorobenzyl)-2-isobutyl-5-(5-methyl-1,3,4-oxadiazol-2-yl)nicotinamide] | 0.0741
5 | Cc1ncc(-c2c(CCc3ccc(F)cc3)nc(CC(C)C)c(C(N)=O)c2-c2ccc(C(=O)NCc3ccc(F)c(F)c3)s2)o1 [Compound 152, N-(3,4-difluorophenyl)methyl-5-{5-carbamoyl-2-[2-(p-fluorophenyl)ethyl]-6-isobutyl-3-(2-methyl-1,3-oxazol-5-yl)-4-pyridyl}-2-thenamide] | 0.0115
6 | Cc1nnc(-c2c(CCc3ccc(F)cc3)nc(CC(C)C)c(C(N)=O)c2-c2ccc(C(=O)N[C@@H]3CCc4cc(F)ccc43)s2)o1 [Compound 120, (R)-4-(5-((5-fluoro-2,3-dihydro-1H-inden-1-yl)carbamoyl)thiophen-2-yl)-6-(4-fluorophenethyl)-2-isobutyl-5-(5-methyl-1,3,4-oxadiazol-2-yl)nicotinamide] | 0.0017
7 | Cc1nnc(-c2c(CN3Cc4ccccc4C3=O)nc(CC(C)C)c(C(N)=O)c2-c2ccc(C(=O)NCc3ccc(F)c(F)c3)s2)o1 [Compound 181] | 9.32
8 | Cc1nnc(-c2c(CC(C)(C)c3ccc(F)cc3)nc(CC(C)C)c(C(N)=O)c2-c2ccc(C(=O)NCc3ccc(F)c(F)c3)s2)o1 [Compound 176, 4-(5-((3,4-difluorobenzyl)carbamoyl)thiophen-2-yl)-6-(2-(4-fluorophenyl)-2-methylpropyl)-2-isobutyl-5-(5-methyl-1,3,4-oxadiazol-2-yl)nicotinamide] | 1.28
9 | Cc1ccn(CCc2nc(CC(C)C)c(C(N)=O)c(-c3ccc(C(=O)NCc4ccc(F)c(F)c4)s3)c2-c2nnc(C)o2)n1 [Compound 183, 4-(5-((3,4-difluorobenzyl)carbamoyl)thiophen-2-yl)-2-isobutyl-5-(5-methyl-1,3,4-oxadiazol-2-yl)-6-(2-(3-methyl-1H-pyrazol-1-yl)ethyl)nicotinamide] | 1.91
10 | COc1cc(CNC(=O)c2ccc(-c3c(C(N)=O)c(CC(C)C)nc(CCc4ccc(F)cc4)c3-c3nnc(C)o3)s2)ccc1F [Compound 117, N-[(4-fluoro-3-methoxyphenyl)methyl]-5-{5-carbamoyl-2-[2-(p-fluorophenyl)ethyl]-6-isobutyl-3-(5-methyl-1,3,4-oxadiazol-2-yl)-4-pyridyl}-2-thenamide] | 0.0402
11 | Cc1nnc(-c2c(OCc3ccc(F)cc3)nc(CC(C)C)c(C(N)=O)c2-c2ccc(C(=O)NCc3ccc(F)c(F)c3)s2)o1 [Compound 146, 4-[5-[(3,4-difluorophenyl)methylcarbamoyl]-2-thienyl]-6-[(4-fluorophenyl)methoxy]-2-isobutyl-5-(5-methyl-1,3,4-oxadiazol-2-yl)pyridine-3-carboxamide] | 0.973
12 | Cc1nnc(-c2c(COc3ccc(F)cc3)nc(CC(C)C)c(C(N)=O)c2-c2cc3ccnc(N[C@@H]4CCc5ncccc54)c3s2)o1 [Compound 173, (R)-4-(7-((6,7-dihydro-5H-cyclopenta[b]pyridin-5-yl)amino)thieno[2,3-c]pyridin-2-yl)-6-((4-fluorophenoxy)methyl)-2-isobutyl-5-(5-methyl-1,3,4-oxadiazol-2-yl)nicotinamide] | 0.408
13 | Cc1nnc(-c2c(CCc3ccc(F)cc3)nc(CC(C)C)c(C(N)=O)c2-c2ccc3c(c2)CCC3NCc2ccc(F)c(F)c2)o1 (stereo not shown) [Compound 143, 4-(1-{[(3,4-difluorophenyl)methyl]amino}-5-indanyl)-6-[2-(p-fluorophenyl)ethyl]-2-isobutyl-5-(5-methyl-1,3,4-oxadiazol-2-yl)nicotinamide] | 0.374
14 | Cc1nnc(-c2c(CC3COc4ccccc4O3)nc(CC(C)C)c(C(N)=O)c2-c2ccc(C(=O)NCc3ccc(F)c(F)c3)s2)o1 (stereo not shown) [Compound 180, 4-(5-((3,4-difluorobenzyl)carbamoyl)thiophen-2-yl)-6-((2,3-dihydrobenzo[b][1,4]dioxin-2-yl)methyl)-2-isobutyl-5-(5-methyl-1,3,4-oxadiazol-2-yl)nicotinamide] | 0.138
15 | CO[C@@H]1CCCN(C(=O)c2ccc(-c3c(C(N)=O)c(CC(C)C)nc(CCc4ccc(F)cc4)c3-c3nnc(C)o3)s2)C1 [Compound 165] | > 1
16 | Cc1nnc(-c2c(CCc3ccc(F)cc3)nc(OC(C)C)c(C(N)=O)c2-c2ccc(C(=O)NCc3ccc(F)c(F)c3)s2)o1 [Compound 167, 4-(5-((3,4-difluorobenzyl)carbamoyl)thiophen-2-yl)-6-(4-fluorophenethyl)-2-isopropoxy-5-(5-methyl-1,3,4-oxadiazol-2-yl)nicotinamide] | 0.336
17 | Cc1nnc(-c2c(CCc3ccc(F)cc3)nc(CC(C)C)c(C(N)=O)c2-c2cc3c(NCc4ccc(F)c(F)c4)nccc3s2)o1 [Compound 133, 4-(4-((3,4-difluorobenzyl)amino)thieno[3,2-c]pyridin-2-yl)-6-(4-fluorophenethyl)-2-isobutyl-5-(5-methyl-1,3,4-oxadiazol-2-yl)nicotinamide] | 0.0069
18 | Cc1nnc(-c2c(CCc3ccc(F)cc3)nc(CC(C)C)c(C(N)=O)c2-c2ccc(C(=O)N[C@@H]3CCc4ccc(F)cc43)s2)o1 [Compound 121, (R)-4-(5-((6-fluoro-2,3-dihydro-1H-inden-1-yl)carbamoyl)thiophen-2-yl)-6-(4-fluorophenethyl)-2-isobutyl-5-(5-methyl-1,3,4-oxadiazol-2-yl)nicotinamide] | 0.001
19 | CCc1nc(CC(C)C)c(C(N)=O)c(-c2ccc(C(=O)NCc3ccc(F)c(F)c3)s2)c1-c1nnc(C)o1 [Compound 112, 4-[5-[(3,4-difluorophenyl)methylcarbamoyl]-2-thienyl]-6-ethyl-2-isobutyl-5-(5-methyl-1,3,4-oxadiazol-2-yl)pyridine-3-carboxamide] | > 11.4
20 | Cc1nnc(-c2c(CCc3ccc(F)cc3)nc(CC(C)C)c(C(N)=O)c2-c2ccc(C(=O)N[C@@H]3CCc4ncccc43)s2)o1 [Compound 123, (R)-4-(5-((6,7-dihydro-5H-cyclopenta[b]pyridin-5-yl)carbamoyl)thiophen-2-yl)-6-(4-fluorophenethyl)-2-isobutyl-5-(5-methyl-1,3,4-oxadiazol-2-yl)nicotinamide] | 0.0372
21 | Cc1nc(-c2c(CCc3ccc(F)cc3)nc(CC(C)C)c(C(N)=O)c2-c2ccc(C(=O)NCc3ccc(F)c(F)c3)s2)co1 [Compound 169, 4-(5-((3,4-difluorobenzyl)carbamoyl)thiophen-2-yl)-6-(4-fluorophenethyl)-2-isobutyl-5-(2-methyloxazol-4-yl)nicotinamide] | 0.122

Each compound was assayed against T1, human calcitonin receptor (CTR) in COS-7 cells (Homo sapiens, UniProt P30988) (assay: Calcitonin Receptor (CTR) cAMP Assay). Conditions: COS7-human CTR Clone #2 cells; read-out: Calcitonin Receptor cAMP Stimulation Activity: EC50.
T1 construct: expressed in transfected cells; host or cells: COS-7 (COS7-human CTR Clone #2)
T1 sequence (P30988 25-474): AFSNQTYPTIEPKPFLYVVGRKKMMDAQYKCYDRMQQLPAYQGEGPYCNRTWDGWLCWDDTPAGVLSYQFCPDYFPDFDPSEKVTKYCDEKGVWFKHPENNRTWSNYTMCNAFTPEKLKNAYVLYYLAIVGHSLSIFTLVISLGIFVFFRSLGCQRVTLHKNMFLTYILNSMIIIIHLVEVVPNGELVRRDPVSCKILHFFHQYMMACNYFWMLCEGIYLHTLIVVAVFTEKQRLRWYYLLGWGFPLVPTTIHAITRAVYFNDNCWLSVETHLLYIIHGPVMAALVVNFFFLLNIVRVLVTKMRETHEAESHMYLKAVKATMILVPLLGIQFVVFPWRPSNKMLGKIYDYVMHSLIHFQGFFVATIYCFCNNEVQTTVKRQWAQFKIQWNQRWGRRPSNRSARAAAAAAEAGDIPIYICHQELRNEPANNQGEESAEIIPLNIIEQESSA
Type: cell-based
Source text: Calcitonin Receptor (CTR) cAMP Assay
The calcitonin receptor (CTR) belongs to the subfamily of GPCRs known as the secretin or ‘B’ family of GPCRs. Like other class B1 GPCRs, the CT receptor family is canonically coupled to Gs-mediated cAMP production, and measurement of cAMP accumulation has been the primary assay used to determine peptide selectivity and potency.
To optimize functional activity directed toward Gas coupling, COS-7 cells were stably transfected with human calcitonin receptor (CTR) to create COS7-human CTR Clone #2 stable cell line. 100× concentration of compound working solutions were prepared with 4-fold serial dilution in 384-well Echo LDV plate (Labcyte, Cat #LP-0200-BC). 200 nL/well 100× concentration of compound working solutions were moved to 384-well white microplate (Perkin Elmer, Cat #6007680) using Labcyte ECHO550. 1×10^5 cells/mL COS7-human CTR Clone #2 cell suspensions prepared with assay buffer [HBSS containing 20 mM HEPES (Gibco, Cat #15630-080), 0.5 mM IBMX (Sigma, Cat #15879) and 0.1% Casein (Sigma, Cat #C4765)], 20 μL cell suspensions were added to each well of previous generated assay plate which already contains 200 nL compound at 100× concentration using ThermoFisher Multidrop Combi (2000 cells/well). Seal the plate and incubate at 37° C. with 5% CO2 for 30 min.
After incubation, the cAMP assay signal was generated using cAMP dynamic 2 kit (Revvity, Cat #62AM4PEC). 10 μL cAMP-d2 working solution was added to each well, followed by […] Anti-cAMP antibody-cryptate working solution which was added to each well using CERTUS FLEX LIQUID DISPENSER. The samples were then incubated at room temperature for 1 hour protected from light. the fluorescence was read at 665 and 615 nm with Reader PerkinElmer EnVision 2105.

Row | SMILES | EC50 [µM]
22 | Cc1nnc(-c2c(CCc3ccc(F)cc3)nc(CC(C)C)c(C(N)=O)c2-c2ccc3c(ccn3CCc3ccc(F)c(F)c3)c2)o1 [Compound 144, 4-(1-(3,4-difluorophenethyl)-1H-indol-5-yl)-6-(4-fluorophenethyl)-2-isobutyl-5-(5-methyl-1,3,4-oxadiazol-2-yl)nicotinamide] | 0.0069
